Where a chain is given by its changes, count along the chain named. Names may count otherwise. Where two headings read alike, the source gives them in different places. Ends that are not written are not given here.
What was measured:
hIRE1α = details: available binding affinities to hIRE1α; fluorescence anisotropy; ref Karagöz et al., 2017; Kettel et al., 2024; cited from earlier work
Excerpt: page 1: Structural Dynamics of IRE1 and its Interaction with Unfolded Peptides Supplementary File 2 Polypeptide K1/2 [µM] […] References Elif Karag¨oz G, Acosta-Alvear D, Nguyen HT, Lee CP, Chu F, Walter P. An unfolded protein-induced conformational switch activates mammalian IRE1. eLife. 2017;6:e30700. Kettel P, Marosits L, Spinetti E, Rechberger M, Giannini C, Radler P, et al. Disordered regions in the IRE1 ER lumenal domain medi ...

hIRE1α LD E102R = target: T1, hIRE1α LD E102R (Homo sapiens, UniProt O75460, E102R); experiment: Fluorescence anisotropy, binding of labeled MPZ1N-2X to hIRE1α LD E102R
T1 construct: His6 (N, cleaved yes); made in house; host or cells: Escherichia coli BL21DE3* RIPL
T1 sequence (O75460 24-443 E102R): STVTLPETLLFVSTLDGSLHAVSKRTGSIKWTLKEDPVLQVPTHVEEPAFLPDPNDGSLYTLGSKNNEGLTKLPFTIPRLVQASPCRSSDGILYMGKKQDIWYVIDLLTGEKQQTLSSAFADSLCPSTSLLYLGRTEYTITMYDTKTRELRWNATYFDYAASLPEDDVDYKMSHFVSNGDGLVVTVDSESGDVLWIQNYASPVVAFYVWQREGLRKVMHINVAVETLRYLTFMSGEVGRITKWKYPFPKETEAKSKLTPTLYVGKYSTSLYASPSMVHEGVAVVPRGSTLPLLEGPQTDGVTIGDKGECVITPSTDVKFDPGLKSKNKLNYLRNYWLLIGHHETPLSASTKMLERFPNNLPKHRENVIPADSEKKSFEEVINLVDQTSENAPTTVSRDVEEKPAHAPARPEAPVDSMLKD
Method: (§1) To express hIRE1α LD (24–443) human cDNA sequences were cloned into pET47b(+) to create a coding sequence with N-terminal His6-tag. Mutations of hIRE1α LD were introduced by overlap extension PCR and restriction cloning into pET47b(+). For expression of the proteins, the plasmid of interest was transformed into Escherichia coli strain BL21DE3* RIPL (Agilent Technologies). Cells were grown in Luria Broth until OD600 = 0.6–0.8. Protein expression was induced with 0.6 mM IPTG, and cells were grown in 20°C overnight. For purification, cells after harvesting were resuspended in Lysis Buffer (50 mM HEPES pH 7.2, 400 mM NaCl, 20 mM imidazole, 5% glycerol, 5 mM β -mercaptoethanol) and were lysed in Constans Systems cell disruptor at 25,000 psi. […] Protein concentrations were determined using the extinction coefficient at 280 nm predicted by the Expasy ProtParam tool (http://web.expasy.org/protparam/).
(§2) For fluorescence anisotropy measurements, the MPZ1-N-2X peptide attached to 5 carboxyfluorescein (5-FAM) at its N-terminus was obtained from GenScript at >95% purity. Binding affinities of hIRE1α LD mutants to FAM-labeled peptides were determined by measuring the change in fluorescence anisotropy on a Tecan CM Spark Micro Plate Reader with excitation at 485 nm and emission at 525 nm with increasing concentrations of hIRE1α LD variants. […]

hIRE1α LD wild-type = target: T2, hIRE1α LD wild-type (Homo sapiens, UniProt O75460); experiment: Fluorescence anisotropy, binding of labeled MPZ1N-2X to hIRE1α LD WT
T2 construct: His6 (N, cleaved yes); made in house; host or cells: Escherichia coli BL21DE3* RIPL
T2 sequence (O75460 24-443): T1 sequence (O75460 24-443 E102R) with R79E
Method: as §1, §2

hIRE1α LD Y161R = target: T3, hIRE1α LD Y161R (Homo sapiens, UniProt O75460, Y161R); experiment: Fluorescence anisotropy, binding of labeled MPZ1N-2X to hIRE1α LD Y161R; details: 95% confidence interval of KD
T3 construct: His6 (N, cleaved yes); made in house; host or cells: Escherichia coli BL21DE3* RIPL
T3 sequence (O75460 24-443 Y161R): T1 sequence (O75460 24-443 E102R) with R79E, Y138R
Method: as §1, §2

[1] = target: T4, MPZ1N-2X peptide, 5-FAM labelled (5 carboxyfluorescein (5-FAM) at its N-terminus); experiment: fluorescence polarisation; fluorescence anisotropy; 90 nM 5-FAM-labelled peptide with increasing concentrations of hIRE1α LD variants; 25 mM HEPES pH 7.2, 150 mM NaCl, 2 mM DTT, 0.025% Tween 20; 30 min at 25°C; Hill fit, apparent K1/2 (does not reflect the dissociation constant); details: both partners purified
T4 construct: model unfolded peptide derived from Myelin Protein Zero (MPZ); not a plain stretch of the natural protein; source: synthetic peptide; bought: GenScript (>95% purity)
T4 peptide: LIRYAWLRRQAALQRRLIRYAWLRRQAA

[2] = 95% confidence interval of KD, read-out: KD 95% confidence interval

Molecule: LIDYAWLDDQAALQDDLIDYAWLDDQAA [MPZ1N-2X-RD, MPZ1N-2X with all the arginines mutated to aspartic acid]
- K1/2 (hIRE1α): binding impaired

Molecule: LIRYAWLRRQAA [MPZ1-N, unfolded peptide derived from Myelin Protein Zero, …]
- K1/2 (hIRE1α): 16 µM

Molecule: LIRYAWLRRQAALQRRLIRYAWLRRQAA [MPZ1N-2X]
- Kd (hIRE1α LD E102R; [2]): 5.84 to 6.96 µM
- Kd (hIRE1α LD E102R; fluorescence anisotropy, 5-FAM-labeled peptide 90 nM, pH 7.2, 30 min, 25°C, R2 0.9992, read-out: KD): 6.35 µM
- Kd (hIRE1α LD wild-type; [2]): 1.81 to 2.53 µM
- Kd (hIRE1α LD wild-type; fluorescence anisotropy, 5-FAM-labeled peptide 90 nM, pH 7.2, 30 min, 25°C, R2 0.9918, read-out: KD): 2.14 µM
- Kd (hIRE1α LD Y161R): 4.3 to 7.1 µM

Molecule: LQRRISAME [MPZ1-C, peptide derived from Myelin Protein Zero, …]
- K1/2 (hIRE1α): 572 µM

B1: human IRE1α luminal domain (hIRE1α LD, 24–443), wild type (domain or fragment, UniProt O75460 24-443, looked up)
chain: T1 sequence (O75460 24-443 E102R) with R79E
notes: Inositol-requiring enzyme 1 alpha (IRE1α), human, luminal domain, residues 24-443, cloned from human cDNA into pET47b(+); also called hIRE1α LD WT; WT; source: E. coli BL21DE3* RIPL, purified (Ni-NTA, HiTRAP-Q, Superdex 200); not shown: His6, N-terminal, cleaved
- K1/2 (apparent) [1]: 2.14 µM

B2: human IRE1α luminal domain (hIRE1α LD, 24–443) E102R (domain or fragment, UniProt O75460 24-443, looked up)
chain: T1 sequence (O75460 24-443 E102R)
notes: Inositol-requiring enzyme 1 alpha (IRE1α), human, luminal domain, residues 24-443, with E102R introduced by overlap extension PCR; source: E. coli BL21DE3* RIPL, purified (Ni-NTA, HiTRAP-Q, Superdex 200); not shown: His6, N-terminal, cleaved
- K1/2 (apparent) [1]: 6.35 µM

B3: human IRE1α luminal domain (hIRE1α LD, 24–443) Y161R (domain or fragment, UniProt O75460 24-443, looked up)
chain: T1 sequence (O75460 24-443 E102R) with R79E, Y138R
notes: Inositol-requiring enzyme 1 alpha (IRE1α), human, luminal domain, residues 24-443, with Y161R introduced by overlap extension PCR; source: E. coli BL21DE3* RIPL, purified (Ni-NTA, HiTRAP-Q, Superdex 200); not shown: His6, N-terminal, cleaved
- K1/2 (apparent) [1]: 5.4 µM
